We go through ten compounds from patent publication US20190178889A1, “HIGH-THROUGHPUT SCREENING ASSAY” (BellBrook Labs, priority 2016, published 2019).

Data set [1] deals with cGAMP mAb6. In words: competitive FP immunoassay, cGAMP mAb6 with cGAMP-Atto 633 tracer. Type of data set: binding, mouse. The note with it: for binding to mAb6: ATP and GTP at more than 10^4-fold excess over half-maximal cGAMP concentration. An excerpt: Importantly, neither of these other cyclic dinucleotides are known to be endogenous in mammalian cells.
Data set [2] has as its system mouse antiserum (cGAMP antibody). In words: FP binding of mouse antiserum to fluorescein-cGAMP tracer with competitor nucleotides. The following applies: competitor 10 μM, tracer 4 nM.
In data set [3] the target is T1, full length human cGAS (Homo sapiens, UniProt Q8N884). Put plainly: cGAS enzyme assay with cGAMP FP detection. Also on record: Assays using highly purified, full length human cGAS were performed; 6xHis; made in house; host or cells: E. coli BL21 DE3 (Rosetta DE3, Novagen), T7 expression vector. It is filed as biochemical. As to the method:
FIG. 9 includes A) a plot showing detection of purified, full-length cGAS: cGAS enzyme titrations show a dose-dependent assay signal, as discussed in more detail in Example 2, below; N- and C-terminal His-tagged cGAS was prepared according to Example 4 (100 μM ATP and GTP, 62.5 nM 45 bp ISD DNA, 60 min reactions); […]; C) Confirmation that recombinant hcGAS was activated by ds DNA; half maximal responses of 3.5 and 5.9 nM for HSV 60 and ISD 45, respectively; D) ATP and GTP dependence: ATP and GTP were titrated separately and simultaneously; half maximal cGAS activity at 80 μM of both nucleotide; E) Dose response for cGAS inhibition by two flavonoids; F) a plot showing the results of an interference screen: the library of 1280 pharmacologically active compounds, available from Sigma (the “LOPAC library”) was used to test for compound interference with detection reagents as discussed in more detail in Example 2, below; wells contained all cGAS enzyme reaction components except the cGAS enzyme; positive controls contained 1 μM cGAMP, negative controls contained no cGAMP; […]; negative controls lacked dsDNA required for cGAS activation; H) an image of a coomassie blue stained SDS gel (top) and western blot (bottom) of purified 6×HIS-cGAS (Lane 1) and cGAS-6×His (Lane 2) prepared according to Example 4; Z=0.62, Z′=0.7.
cGAS is one of four oligoadenylate synthases, nucleic acid sensors that activate innate immunity via production of short, 2′-5′ oligoadenylate secondary messengers (35); […]. Binding of dsDNA and DNA:RNA hybrids to cGAS induces a conformational transition in an activation loop, not unlike the displacement of inhibitory domains by autophosphorylation in protein kinases (Zhang, et al., 2014, Cell Rep 6(3):421-30; Fabbro, et al., 2012, Methods Mol Biol 795:1-34). The full-length enzyme was used to insure that all of the potential allosteric sites were present and that the enzyme was able to sample its full conformational repertoire. Prior to running cGAS enzyme reactions, the effect of cGAS reaction components, including ATP and GTP Brij 35, NaCl, Brij 35, and dsDNA on the detection reagents was examined; no significant effects were observed. Assays using highly purified, full length human cGAS were performed. The full-length human cGAS was prepared according to Example 4, below. Additionally, third-party-provided cGAS (Sun, et al., 2013, Science 339(6121):786-91) was used for comparative purposes. Some enzyme assays were run in kinetic mode; i.e., the detection reagents were present during the enzyme reactions, and the plates were read periodically, and others were run in endpoint mode, using EDTA to quench the reaction.
. The enzyme data was graphed as the net change in polarization; […]. Conversion of polarization to cGAMP formation using a standard curve confirmed that product formation was linear with cGAS concentration (FIG. 9B); […]. There was essentially no quantitative activity data available for cGAS prior to the instant disclosure and the kcat values of approximately 1 min^−1 determined herein (at non-saturating ATP and GTP) were the first reported cGAS kinetic parameters. The generation of a good signal (i.e., ≥100 mP) with less than 10 nM cGAS is important for two reasons. It reduces the time and cost to prepare for a large screen by minimizing enzyme usage; for example, screening 1M (one million) compounds at 10 nM cGAS will require only 12 mg of enzyme. […]

Data set [4] addresses scFvs against haptens. The note with it: affinity-matured scFvs, yeast display; read-out: Kds of scFvs; cited from earlier work.
The target in data set [5] is T1, full length human cGAS. Put plainly: cGAS enzyme assay with cGAMP TR-FRET detection. (TR-FRET usually uses a lanthanide donor and a delayed reading to cut background.)
Setting [6] is: both nucleotides combined (titrated simultaneously), read-out: half maximal concentration of ATP and GTP for cGAS activity.

T1 sequence (Q8N884 whole entry): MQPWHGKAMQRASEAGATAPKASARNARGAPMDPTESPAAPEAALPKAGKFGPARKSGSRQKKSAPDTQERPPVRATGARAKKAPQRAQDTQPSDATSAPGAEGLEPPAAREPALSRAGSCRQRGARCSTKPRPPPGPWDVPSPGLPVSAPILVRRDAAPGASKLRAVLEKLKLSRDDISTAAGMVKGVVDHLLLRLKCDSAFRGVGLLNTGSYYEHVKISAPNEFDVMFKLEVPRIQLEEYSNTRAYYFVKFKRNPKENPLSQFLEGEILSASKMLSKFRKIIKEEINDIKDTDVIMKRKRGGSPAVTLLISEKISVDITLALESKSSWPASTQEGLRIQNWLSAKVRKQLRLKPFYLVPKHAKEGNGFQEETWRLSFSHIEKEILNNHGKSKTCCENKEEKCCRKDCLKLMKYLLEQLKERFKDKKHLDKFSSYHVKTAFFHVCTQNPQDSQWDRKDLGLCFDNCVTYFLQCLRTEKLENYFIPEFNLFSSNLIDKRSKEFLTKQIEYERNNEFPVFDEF

As for `Nc1nc2c(ncn2[C@@H]2O[C@@H]3COP(=O)(O)O[C@H]4[C@@H](O)[C@H](n5cnc6c(N)ncnc65)O[C@@H]4COP(=O)(O)O[C@@H]2[C@@H]3O)c(=O)[nH]1` [2′,3′ cGAMP, G(2′-5′)pA(3′-5′)p], the polarization shift result in data set [1] (at 500 nM cGAMP, 0.5-0.6 μg/ml mAb6) is listed as “approximately 130 mP”. Moreover, the “effect of excess competitor on antiserum/tracer binding curve” value (“effect … on antiserum/tracer binding curve” below) in data set [2] is reported as “right-shifted by approximately two orders of magnitude”.

As to `Nc1nc2c(ncn2C2OC3COP(=O)(O)OC4C(O)C(COP(=O)(O)OC3C2O)OC4n2cnc3c(=O)[nH]c(N)nc32)c(=O)[nH]1` (stereo not drawn) [2′,3′ cyclic di-GMP], the IC50 in data set [1] (FP competition curves, FIG. 8E, read-out: 1050 values (competition, displacement of tracer from mAb6)) came to 250 nM.

With `Nc1nc2c(ncn2[C@@H]2O[C@@H]3COP(=O)(O)O[C@H]4[C@@H](O)[C@H](n5cnc6c(N)ncnc65)O[C@@H]4COP(=O)(O)O[C@H]3[C@H]2O)c(=O)[nH]1` [3′,3′ cGAMP], in data set [1] (FP competition curves, FIG. 8E), the “binding to mAb6” value is recorded as “did not bind”.

As to `Nc1ncnc2c1ncn2[C@@H]1O[C@H](COP(=O)(O)OP(=O)(O)O)[C@@H](O)[C@H]1O` [ADP], the “binding to mAb6” value in data set [1] (FP competition curves, FIG. 8E) is on record as “lack of binding”.

`Nc1ncnc2c1ncn2[C@@H]1O[C@H](COP(=O)(O)OP(=O)(O)OP(=O)(O)O)[C@@H](O)[C@H]1O` [ATP]: the “binding to mAb6” value in data set [1] (FP competition curves, FIG. 8E) is “no detectable binding”. In addition, the “effect … on antiserum/tracer binding curve” value in data set [2] is reported as “no effect”. Moreover, in data set [3] (setting [6]), the EC50 is 80000 nM.

For the compound `O=C(O)CN1CCN(CC(=O)O)CCN(CC(=O)O)CCN(CC(=O)O)CC1` [DOTA], the Kd in data set [4] is 0.0082 nM.

For `Nc1nc2c(ncn2[C@@H]2O[C@H](COP(=O)(O)OP(=O)(O)OP(=O)(O)O)[C@@H](O)[C@H]2O)c(=O)[nH]1` [GTP], in data set [1] (FP competition curves, FIG. 8E), the “binding to mAb6” value was “no detectable binding”. Besides, the “effect … on antiserum/tracer binding curve” value in data set [2] is listed as “no effect”. The EC50 in data set [3] (setting [6]) turned out to be 80000 nM.

In the case of `Nc1nc2c(ncn2[C@@H]2O[C@@H]3COP(=O)(O)O[C@H]3[C@H]2O)c(=O)[nH]1` [cGMP], the “binding to mAb6” value in data set [1] (FP competition curves, FIG. 8E) was “lack of binding”.

With “cGAS-His: full-length human cGAS having a 6×His at the C-terminus”, the Kcat in data set [5] (determined by TR-FRET) turned out to be 1.58; in data set [3] (determined by FP), 1.21.

For the compound “cGAS: highly purified, full length human cyclic GMP-AMP synthase”, the EC50 is ~5 nM in data set [5] (read-out: EC50, cGAS enzyme titration, TR-FRET assay, FIG. 10E); 6 to 12 nM in data set [3] (FP assay, depending on the preparation, 100 μM ATP and GTP, 62.5 nM 45 bp ISD DNA, 60 min, read-out: half-maximal change (EC50) of polarization, cGAS enzyme titration). In data set [3] (cGAMP FP assay, non-saturating ATP and GTP), the Kcat entry was “approximately 1 min^−1”.
